Experiments:
[1] = molecular target: human butyrylcholinesterase (BChE, EC 3.1.1.8) (Homo sapiens, UniProt P06276); experiment: Inhibition of freshly prepared human plasma BChE; format: biochemical; details: from 60 to 18,000 nM
[2] = Observation for acute cholinergically-mediated adverse effects in rat; details: anesthetized rat, 10 mg/kg i.p.
[3] = molecular target: human acetylcholinesterase (AChE, EC 3.1.1.7) (Homo sapiens, UniProt P22303); experiment: Inhibition of freshly prepared human erythrocyte AChE
Sequence of human acetylcholinesterase (AChE, EC 3.1.1.7) (P22303 32-617 isoform P22303-2 limits assumed): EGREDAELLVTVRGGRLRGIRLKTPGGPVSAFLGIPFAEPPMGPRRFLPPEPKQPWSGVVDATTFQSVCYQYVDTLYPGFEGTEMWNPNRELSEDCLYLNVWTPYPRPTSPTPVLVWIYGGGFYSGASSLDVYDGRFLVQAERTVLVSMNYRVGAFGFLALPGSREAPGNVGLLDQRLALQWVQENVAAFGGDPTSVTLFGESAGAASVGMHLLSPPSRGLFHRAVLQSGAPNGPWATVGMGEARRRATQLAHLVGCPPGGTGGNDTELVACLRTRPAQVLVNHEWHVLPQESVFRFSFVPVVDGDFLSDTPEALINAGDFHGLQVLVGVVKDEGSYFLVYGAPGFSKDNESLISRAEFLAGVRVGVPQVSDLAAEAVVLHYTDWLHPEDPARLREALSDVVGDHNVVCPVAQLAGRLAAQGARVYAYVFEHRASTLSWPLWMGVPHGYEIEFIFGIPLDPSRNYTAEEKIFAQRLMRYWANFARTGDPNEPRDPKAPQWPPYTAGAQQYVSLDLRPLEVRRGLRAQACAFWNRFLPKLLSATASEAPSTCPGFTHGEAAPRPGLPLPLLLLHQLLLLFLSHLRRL

[4] = test system: cholinesterase; details: cited from earlier work

Sequence of human butyrylcholinesterase (BChE, EC 3.1.1.8) (P06276 29-602): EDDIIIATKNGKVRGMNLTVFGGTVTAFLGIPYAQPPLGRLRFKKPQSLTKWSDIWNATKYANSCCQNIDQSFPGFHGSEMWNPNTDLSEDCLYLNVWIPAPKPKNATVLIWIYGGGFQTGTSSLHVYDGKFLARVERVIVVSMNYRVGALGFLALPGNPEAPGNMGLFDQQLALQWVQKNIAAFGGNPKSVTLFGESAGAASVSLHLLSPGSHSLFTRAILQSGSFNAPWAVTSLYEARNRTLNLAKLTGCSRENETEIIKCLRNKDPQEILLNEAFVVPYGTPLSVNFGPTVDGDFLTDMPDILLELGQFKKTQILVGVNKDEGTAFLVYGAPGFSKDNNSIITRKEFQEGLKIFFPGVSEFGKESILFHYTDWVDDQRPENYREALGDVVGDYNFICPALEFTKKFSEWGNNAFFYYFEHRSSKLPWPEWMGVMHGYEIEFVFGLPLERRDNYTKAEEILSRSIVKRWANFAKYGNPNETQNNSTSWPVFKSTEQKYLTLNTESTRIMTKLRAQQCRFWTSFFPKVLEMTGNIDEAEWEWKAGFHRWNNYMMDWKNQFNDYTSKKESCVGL

COS(=O)(=O)[O-].C[N+](C)(C)c1cccc(OC(=O)Nc2ccccc2)c1 [Compound 6, N-Phenylcarbamate of 3-phenol-1-trimethylammonium methylsulfate]
fold decline of BChE IC50 value relative to neostigmine (3) [1]: 300 fold

CC(C)c1ccc(NC(=O)Oc2ccc3c(c2)[C@]2(C)CC[N+](C)(C)C2N3C)cc1.[Br-] (stereo partly drawn) [Compound 16, N(1)-Methylammonium bromide of (−)-cymserine]
central (tremor) or peripheral (lacrimation and salivation) cholinergically-mediated adverse effects [2]: No central (tremor) or peripheral (lacrimation and salivation) cholinergically-mediated adverse effects were evident

C[n+]1cccc(OC(=O)Nc2ccccc2)c1.[Br-] [Compound 8, N-Phenylcarbamate of 3-hydroxy-1-methylpyridinium bromide]
AChE inhibitory activity (in words) ([3]; human AChE, versus pyridostigmine (4)): entire loss of AChE activity

CNC(=O)Oc1ccc2c(c1)[C@]1(C)CCN(C)[C@@H]1N2C [Compound 9, (−)-Physostigmine]
human pharmacodynamic half-life (T1/2) [4]: 30 min

O=C(Nc1ccccc1)Oc1cccnc1 [Compound 7, N-Phenylcarbamate of 3-hydroxypyridine]
Selectivity A/B or B/A ([3]; given in words only, no ratio): None
